According to US20240140975A1, “ANTIVIRAL APPLICATION OF NUCLEOSIDE ANALOG OR COMBINATION FORMULATION CONTAINING NUCLEOSIDE ANALOG” (priority 2020, published 2024):
Read-outs that look alike come from different tables or passages of the source.

Experiments:
[1] = tested on: 2019 novel coronavirus (SARS-CoV-2); assay: microbe, parasite or virus in culture; assay type: cell-based; conditions: Vero E6 cells, 24 h p.i.; for inhibition at 5 µM: Severe acute respiratory syndrome coronavirus 2, Vero C1008, 24 h, read-out: Inhibition Rate (5 μM); for EC50: Severe acute respiratory syndrome coronavirus 2, Vero C1008, read-out: EC50
in vitro [2] = conditions: human
[3] = Pharmacokinetic evaluation in mice
[4] = tested on: porcine epidemic diarrhea virus (PEDV); assay: Anti-porcine epidemic diarrhea virus (PEDV) activity test in Vero cells, fluorescence quantitative PCR; assay type: cell-based; conditions: 36 h
in vivo = conditions: male, CD-1, mouse
[5] = tested on: human coronavirus OC43 (HCoV OC43); assay: Cytopathic effect (CPE) assay, HCoV OC43 in Huh7; assay type: cell-based; conditions: Betacoronavirus 1, OC43, Huh-7, Huh7 cells
Protocol: The inhibitory effects of compounds on the replication of respiratory syncytial virus (RSV), human coronavirus OC43, influenza A virus, Zika virus (Zika) were tested using cytopathic effect (CPE) assay.
Experimental cells were inoculated in 96-well cell culture plate at a certain cell density, and cultured in an incubator (5% CO2, 37° C.) overnight. Compounds and viruses were added on the second day. […] Then cell viability of each well was detected using Cell Titer-Glo or CCK-8. […] The cytotoxicity test method was the same as the corresponding antiviral test method without virus infection.
The antiviral activity and cytotoxicity of the compounds are respectively indicated by the inhibition rate (%) of compounds on virus-induced cellular viral effects and cell viability (%). Calculating formulas are as follows:
Inhibition rate (%)=(reading value of test well—average value of virus control)/(average value of cell control—average value of virus control)×100;
EC50 and CC50 value are calculated by Prism software, and the inhibition curve fitting method is “log (inhibitor) vs. response—Variable slope”.

[6] = tested on: respiratory syncytial virus (RSV); assay: Cytopathic effect (CPE) assay, RSV in HEp-2; assay type: cell-based; conditions: human respiratory syncytial virus, HEp-2 cells
in vitro [7] = conditions: human; remark: listed apart in the source
Zika virus (Zika) = assay: Cytopathic effect (CPE) assay, Zika virus in Huh7; assay type: cell-based; conditions: for EC50: Huh-7, Huh7 cells, CPE
[8] = parameters: species or system SD rats; conditions: male, Sprague-Dawley (SD), rat, in vivo
Protocol: 18 male SD rats were randomly divided into 6 groups, with 3 rats for each group. Before the experiment, they were fasted for 12 hours (not for the intravenous experiment group) and allowed to drink water. 4 hours after dosing, the animals were fed. Among them, 3 groups were intragastrically administered with 10 mg/kg of A9, A146 and A151, respectively, and the remaining 3 groups were intravenously administered with 2 mg/kg of A9, A146 and A151, respectively. The vehicle for administration was DMSO/EtOH/PEG300/0.9% NaCl (5/5/40/50, v/v/v/v).
5 min (intravenous only), 0.25, 0.5, 1.0, 2.0, 4.0, 6.0, 8.0 and 24 h post administration, 0.2 mL of blood sample was collected from jugular vein into EDTA-K2 tubes, and centrifuged at 11000 rpm for 5 min. The plasma was separated, and frozen in a refrigerator at −70° C. for testing. The operation was conducted in an ice water bath. The concentration of A9 in plasma was determined by LC-MS-MS, and the pharmacokinetic parameters were calculated.

[9] = tested on: dengue fever virus (DENV); assay: Dengue virus plaque reduction test in Vero cells; assay type: cell-based; conditions: Dengue virus, read-out: DENV (Vero) 5 μM (inhibition rate), 5 μM, plaque reduction
[10] = Tissue distribution test in mice; assay type: in vivo, CD-1 mice; conditions: oral administration of A151, liver, kidney, lung, heart
Protocol: 16 male CD-1 mice were randomly divided into 4 groups, with 4 mice for each group.
Before the experiment, they were fasted for 12 hours and allowed to drink water. 2 hours after dosing, the animals were fed. The 4 groups were given 200 mg/kg A151 (dissolved in DMSO-enthanol-PEG300-saline, volume ratio: 5/5/40/50) by intragastric administration. At 1 h, 2 h, 4 h and 8 h after administration, the mice were anesthetized; blood sample was collected by heart puncture, and tissues of liver, kidney, heart and lung were harvested. The distribution profile of A9 in the tissues was determined by HPLC-MS/MS.

[11] = male, CD-1, mouse, in vivo, po, 50 mg/kg
[12] = Porcine epidemic diarrhea virus, Vero

Structure (SMILES) | inhibition at 5 µM [1] [%] | CC50 (in vitro [2]) [nM] | AUC(0-inf) [3, 11] [ng·h/mL] | AUC(0-t) [3, 11] [ng·h/mL] | Cmax [3, 11] [ng/mL] | Tmax [3, 11] [h] | EC50 [4, 12] [nM] | half-life (in vivo; po, 50 mg/kg) [h] | EC50 [5] [nM] | EC50 [6] [nM] | CC50 (in vitro [7]) [nM] | EC50 [1] [nM] | F % (oral bioavailability) [8] [%] | T1/2 ([8]; iv, 2 mg/kg) [h] | T1/2 ([8]; po, 10 mg/kg) [h] | EC50 (Zika virus (Zika)) [nM] | further results
[2H]c1cc([C@]2(C#N)O[C@H](C([2H])([2H])O)[C@@H](O)[C@H]2O)n2ncnc(N)c12 (stereo in doubt) [Compound A11] | > 98 | > 10000 | 5750 | 5680 | 2120 | 0.7 | 5 | 1.9 | 1990 | 660 | > 10000 |  |  |  |  |  | 
[2H]c1cc([C@]2(C#N)O[C@H](COC(=O)C(C)C)[C@@H](O)[C@H]2O)n2ncnc(N)c12 [Compound A70] | 99 | > 10000 |  |  |  |  | 2 |  | 1900 | 580 | > 10000 |  |  |  |  |  | inhibition at 5 µM (Zika virus (Zika); Huh-7, 5 μM, Huh7 cells): ~27%
[2H]C([2H])(O)[C@H]1O[C@@](C#N)(c2ccc3c(N)ncnn23)[C@H](O)[C@@H]1O [Compound A10] | 99 | > 10000 | 4620 | 4550 | 1760 | 0.8 | 6 | 1.3 | 1980 | 630 | > 10000 | 430 |  |  |  |  | 
[2H]c1cc([C@]2(C#N)O[C@H](CO)[C@@H](O)[C@H]2O)n2ncnc(N)c12 [Compound A9] | 99 | > 10000 | 6010 | 5980 | 3230 | 1.2 | 16 | 1 | 1770 | 560 | > 10000 | 440 | 21.3 | 2.3 | 3.4 | 12000 | inhibition at 5 µM [9]: 100%
[2H]c1cc([C@]2(C#N)O[C@H](COC(=O)C(C)C)[C@@H](OC(=O)C(C)C)[C@H]2OC(=O)C(C)C)n2ncnc(N)c12 [Compound A151] | 99 |  |  |  |  |  | < 100 |  | 1990 | 630 | > 10000 | 310 | 56.7 | 1.5 | 2.6 |  | tissue distribution of metabolite A9 (in words) [10]: evenly distributed, without accumulation in liver or kidney
N#C[C@@]1(c2ccc3c(N)ncnn23)O[C@H](CO)[C@@H](O)[C@H]1O [GS-441524, reference compound] | 99 | > 10000 | 4620 |  |  |  |  | 1.2 | 1880 | 730 | > 10000 | 480 |  |  |  | 15000 | AUC(0-inf) ([3]; male, CD-1, mouse, in vivo, iv, 25 mg/kg): 14600 ng·h/mL; Tmax ([3]; mice, p.o. 50 mg/kg, plasma): 0.8 h; EC50 [4]: 26 nM; half-life (in vivo; iv, 25 mg/kg): 1 h
